Data taken from patent publication US12275731B2, “Azaindole inhibitors of wild-type and mutant forms of LRRK2” (DANA-FARBER CANCER INSTITUTE, INC., priority 2018, dated 2025).

Tests used:
Experiment in all cases: KinomeScan profiling
Format in all cases: binding
[1] = target: EGFR(L747-E749del, A750P) (Homo sapiens, UniProt P00533, A750P/DEL747-749); settings: read-out: % control
Procedure: (§1) The kinase selectivity of inventive compounds 77, 96 and 101 was evaluated by KinomeScan®. KinomeScan® analysis was performed against a near comprehensive panel of 468 kinases. The control percentage (% control) for inventive compounds at 1 μM in DMSO was determined by Equation 1: % control=(inventive compound−positive control)/(negative control−positive control)×100%, Equation 1
(§2) wherein the positive control is a compound with a % control value of 0% relative light units (RLU), and the negative control (i.e., DMSO) has % control value of 100% RLU. The enzyme selectivity in the present invention is defined as follows: inventive compounds are considered active for an enzyme when the observed % control is less than 35% (<35%).

[2] = target: T1, JNK1 (Homo sapiens, UniProt P45983); settings: JNK1, 1 μM; read-out: % control
T1 construct: purchased KinomeScan®
Procedure: as §1, §2

[3] = target: T2, JNK2 (Homo sapiens, UniProt P45984); settings: JNK2, 1 μM; read-out: % control
T2 construct: purchased KinomeScan®
Procedure: as §1, §2

[4] = target: LTK (Homo sapiens, UniProt P29376); settings: read-out: % control
Procedure: as §1, §2

[5] = target: T3, PKMYT1 (Homo sapiens, UniProt Q99640); settings: PKMYT1, 1 μM; read-out: % control
T3 sequence (Q99640 1-499): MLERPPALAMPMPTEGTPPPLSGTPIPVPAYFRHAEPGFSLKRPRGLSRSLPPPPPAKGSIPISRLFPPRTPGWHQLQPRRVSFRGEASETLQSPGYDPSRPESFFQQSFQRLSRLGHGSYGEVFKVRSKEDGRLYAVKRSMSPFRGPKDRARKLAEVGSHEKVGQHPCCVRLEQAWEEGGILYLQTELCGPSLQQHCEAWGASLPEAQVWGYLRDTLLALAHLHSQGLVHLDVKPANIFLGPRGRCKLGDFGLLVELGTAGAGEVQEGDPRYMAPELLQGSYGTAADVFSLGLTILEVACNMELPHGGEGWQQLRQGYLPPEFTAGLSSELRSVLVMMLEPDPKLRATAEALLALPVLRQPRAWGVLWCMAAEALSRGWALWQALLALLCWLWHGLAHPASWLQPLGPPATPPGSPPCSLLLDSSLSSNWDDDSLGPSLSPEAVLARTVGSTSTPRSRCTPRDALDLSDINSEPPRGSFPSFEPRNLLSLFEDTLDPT
Procedure: as §1, §2

[6] = target: T4, SNRK (Homo sapiens, UniProt Q9NRH2); settings: read-out: % control
T4 construct: purchased KinomeScan® (panel service)
T4 sequence (Q9NRH2 1-765): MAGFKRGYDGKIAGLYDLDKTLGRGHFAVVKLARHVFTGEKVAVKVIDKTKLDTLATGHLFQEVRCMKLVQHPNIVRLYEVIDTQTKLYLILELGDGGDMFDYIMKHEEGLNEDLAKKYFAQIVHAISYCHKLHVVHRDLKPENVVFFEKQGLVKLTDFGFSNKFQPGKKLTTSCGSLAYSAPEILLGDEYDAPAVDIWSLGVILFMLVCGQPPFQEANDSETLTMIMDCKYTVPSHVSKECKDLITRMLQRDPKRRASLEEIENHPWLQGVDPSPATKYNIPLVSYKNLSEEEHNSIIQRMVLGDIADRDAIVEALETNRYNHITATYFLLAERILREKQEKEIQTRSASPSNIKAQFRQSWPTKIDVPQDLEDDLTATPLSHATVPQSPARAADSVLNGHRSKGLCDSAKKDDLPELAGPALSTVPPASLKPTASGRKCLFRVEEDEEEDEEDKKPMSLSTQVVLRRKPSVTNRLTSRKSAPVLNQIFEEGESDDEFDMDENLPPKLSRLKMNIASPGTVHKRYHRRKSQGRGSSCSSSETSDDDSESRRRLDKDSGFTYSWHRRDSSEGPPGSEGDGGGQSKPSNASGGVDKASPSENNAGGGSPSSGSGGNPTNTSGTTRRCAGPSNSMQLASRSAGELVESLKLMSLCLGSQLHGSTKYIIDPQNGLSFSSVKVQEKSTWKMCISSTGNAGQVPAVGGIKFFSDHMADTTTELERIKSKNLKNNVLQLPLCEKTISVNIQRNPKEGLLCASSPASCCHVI
Procedure: as §1, §2

[7] = target: T5, TBK1 (Homo sapiens, UniProt Q9UHD2); settings: TBK1, 1 μM; read-out: % control
T5 sequence (Q9UHD2 1-729): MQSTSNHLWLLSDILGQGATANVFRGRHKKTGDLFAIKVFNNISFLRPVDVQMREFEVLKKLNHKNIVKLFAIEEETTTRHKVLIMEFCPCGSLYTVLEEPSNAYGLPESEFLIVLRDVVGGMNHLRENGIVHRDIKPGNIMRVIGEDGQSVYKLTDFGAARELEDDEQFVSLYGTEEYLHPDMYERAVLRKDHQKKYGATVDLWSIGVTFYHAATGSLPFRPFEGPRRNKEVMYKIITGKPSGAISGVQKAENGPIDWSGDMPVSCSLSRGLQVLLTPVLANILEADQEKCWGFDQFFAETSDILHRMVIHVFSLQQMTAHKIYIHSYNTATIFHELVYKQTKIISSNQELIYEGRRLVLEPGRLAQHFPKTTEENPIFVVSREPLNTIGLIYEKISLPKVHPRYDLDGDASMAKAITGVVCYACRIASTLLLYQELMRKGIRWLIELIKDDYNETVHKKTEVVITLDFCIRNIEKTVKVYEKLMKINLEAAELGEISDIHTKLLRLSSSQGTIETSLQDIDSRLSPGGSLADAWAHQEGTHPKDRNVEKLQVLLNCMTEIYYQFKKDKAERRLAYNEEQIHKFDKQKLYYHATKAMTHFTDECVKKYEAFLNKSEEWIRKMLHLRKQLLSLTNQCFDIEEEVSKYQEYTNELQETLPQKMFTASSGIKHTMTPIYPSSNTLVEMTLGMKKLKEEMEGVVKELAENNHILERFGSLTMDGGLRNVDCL
Procedure: as §1, §2

T1 sequence (P45983 whole entry): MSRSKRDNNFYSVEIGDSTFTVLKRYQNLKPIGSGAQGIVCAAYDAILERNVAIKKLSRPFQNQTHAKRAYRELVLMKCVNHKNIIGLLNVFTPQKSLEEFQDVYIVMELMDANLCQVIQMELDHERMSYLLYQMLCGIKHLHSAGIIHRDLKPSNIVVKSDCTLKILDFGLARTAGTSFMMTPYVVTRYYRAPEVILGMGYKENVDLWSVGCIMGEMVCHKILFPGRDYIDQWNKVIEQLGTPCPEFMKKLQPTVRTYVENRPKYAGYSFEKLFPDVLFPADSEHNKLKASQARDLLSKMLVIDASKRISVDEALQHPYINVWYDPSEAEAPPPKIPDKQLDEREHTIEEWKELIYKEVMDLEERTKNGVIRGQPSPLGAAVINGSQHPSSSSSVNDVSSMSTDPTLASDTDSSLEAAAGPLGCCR
Sequence of LTK (P29376 17-864): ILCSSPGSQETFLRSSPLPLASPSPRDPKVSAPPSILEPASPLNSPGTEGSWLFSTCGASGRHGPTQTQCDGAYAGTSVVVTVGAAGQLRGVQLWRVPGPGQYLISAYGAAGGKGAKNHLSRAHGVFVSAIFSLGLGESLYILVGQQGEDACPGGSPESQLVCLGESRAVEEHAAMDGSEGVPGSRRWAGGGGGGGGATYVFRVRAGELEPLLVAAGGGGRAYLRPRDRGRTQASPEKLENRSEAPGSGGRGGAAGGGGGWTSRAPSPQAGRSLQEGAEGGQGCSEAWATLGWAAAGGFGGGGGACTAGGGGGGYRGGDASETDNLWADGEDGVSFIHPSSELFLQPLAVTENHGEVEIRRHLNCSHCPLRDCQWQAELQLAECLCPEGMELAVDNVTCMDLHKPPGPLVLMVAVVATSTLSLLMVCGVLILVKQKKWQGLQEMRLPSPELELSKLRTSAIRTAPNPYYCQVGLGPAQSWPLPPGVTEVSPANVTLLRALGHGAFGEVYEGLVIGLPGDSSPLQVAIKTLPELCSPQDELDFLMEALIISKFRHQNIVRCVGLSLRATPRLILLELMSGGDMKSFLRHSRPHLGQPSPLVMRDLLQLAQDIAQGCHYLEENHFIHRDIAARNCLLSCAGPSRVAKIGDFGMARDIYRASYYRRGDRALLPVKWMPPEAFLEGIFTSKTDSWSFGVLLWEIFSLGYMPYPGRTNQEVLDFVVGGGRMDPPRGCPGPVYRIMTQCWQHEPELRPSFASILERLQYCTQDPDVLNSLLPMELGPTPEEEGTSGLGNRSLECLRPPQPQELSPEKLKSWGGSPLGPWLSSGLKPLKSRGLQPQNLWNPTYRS
Sequence of EGFR(L747-E749del, A750P) (P00533 with tags, fused parts or gaps DEL747-749/A750P): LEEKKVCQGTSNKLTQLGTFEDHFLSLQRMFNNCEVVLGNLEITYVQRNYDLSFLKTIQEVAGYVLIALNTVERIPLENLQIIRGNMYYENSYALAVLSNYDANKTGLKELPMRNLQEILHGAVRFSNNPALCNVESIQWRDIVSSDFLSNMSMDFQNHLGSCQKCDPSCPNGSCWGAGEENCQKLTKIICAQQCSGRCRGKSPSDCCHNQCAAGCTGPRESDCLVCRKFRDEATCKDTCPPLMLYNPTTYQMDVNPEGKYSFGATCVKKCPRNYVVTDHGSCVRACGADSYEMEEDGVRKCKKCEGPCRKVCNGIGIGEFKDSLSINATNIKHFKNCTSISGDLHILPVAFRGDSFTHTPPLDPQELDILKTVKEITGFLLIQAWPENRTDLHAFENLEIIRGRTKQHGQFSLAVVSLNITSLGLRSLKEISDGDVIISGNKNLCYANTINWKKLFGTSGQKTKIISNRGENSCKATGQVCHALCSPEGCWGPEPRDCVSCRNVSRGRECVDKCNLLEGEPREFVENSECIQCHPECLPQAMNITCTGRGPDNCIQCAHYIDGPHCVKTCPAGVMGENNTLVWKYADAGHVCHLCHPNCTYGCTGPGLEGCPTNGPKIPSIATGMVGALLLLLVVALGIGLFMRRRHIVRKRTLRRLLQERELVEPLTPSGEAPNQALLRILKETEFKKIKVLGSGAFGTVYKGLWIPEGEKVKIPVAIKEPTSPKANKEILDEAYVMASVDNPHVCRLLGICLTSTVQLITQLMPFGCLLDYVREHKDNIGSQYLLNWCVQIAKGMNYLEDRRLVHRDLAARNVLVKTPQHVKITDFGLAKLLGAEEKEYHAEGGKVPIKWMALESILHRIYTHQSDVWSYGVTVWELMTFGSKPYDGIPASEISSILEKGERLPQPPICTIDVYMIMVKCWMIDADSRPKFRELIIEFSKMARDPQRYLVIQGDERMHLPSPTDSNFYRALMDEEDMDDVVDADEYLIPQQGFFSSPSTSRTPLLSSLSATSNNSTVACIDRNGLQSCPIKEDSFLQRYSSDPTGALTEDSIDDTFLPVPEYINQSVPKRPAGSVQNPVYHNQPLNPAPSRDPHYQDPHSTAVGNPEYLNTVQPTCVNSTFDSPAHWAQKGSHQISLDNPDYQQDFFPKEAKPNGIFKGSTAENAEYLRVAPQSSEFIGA
T2 sequence (P45984 whole entry): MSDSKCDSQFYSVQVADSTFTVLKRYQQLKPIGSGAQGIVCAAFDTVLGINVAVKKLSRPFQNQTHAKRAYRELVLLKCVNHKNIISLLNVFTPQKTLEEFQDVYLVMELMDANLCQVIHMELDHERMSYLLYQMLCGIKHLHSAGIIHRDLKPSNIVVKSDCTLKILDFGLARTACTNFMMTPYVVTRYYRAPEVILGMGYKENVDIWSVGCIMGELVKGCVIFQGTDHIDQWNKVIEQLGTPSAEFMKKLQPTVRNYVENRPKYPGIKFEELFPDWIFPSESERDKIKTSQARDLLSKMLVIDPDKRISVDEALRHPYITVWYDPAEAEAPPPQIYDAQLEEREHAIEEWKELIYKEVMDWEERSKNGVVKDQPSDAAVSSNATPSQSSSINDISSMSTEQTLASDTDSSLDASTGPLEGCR

Row | SMILES | remaining binding at 1 µM [1] [%] | remaining binding at 1 µM [2] [%] | remaining binding at 1 µM [3] [%] | remaining binding at 1 µM [4] [%] | remaining binding at 1 µM [5] [%] | remaining binding at 1 µM [6] [%] | remaining binding at 1 µM [7] [%]
1 | CNc1c(-c2cnn([C@H]3CCN(C(C)=O)C[C@@H]3F)c2)cnc2[nH]cc(Cl)c12 [Compound 77, 1-((3S,4S)-4-(4-(3-chloro-4-(methylamino)-1H-pyrrolo[2,3-b]pyridin-5-yl)-1H-pyrazol-1-yl)-3-fluoropiperidin-1-yl)ethan-1-one] | 100 | 1.1 | 17 | 75 | 98 | 100 | 57
2 | O=C(c1ccc(-c2cnc3[nH]cc(Cl)c3c2NC2CCCC2)cc1)N1CCC(N2CCOCC2)CC1 [Compound 101, (4-(3-chloro-4-(cyclopentylamino)-1H-pyrrolo[2,3-b]pyridin-5-yl)phenyl)(4-morpholinopiperidin-1-yl)methanone] | 88 | 7.1 | 8.8 | 72 | 97 | 100 | 90
3 | CNc1c(-c2ccc(C(=O)N3CCC(N4CCOCC4)CC3)cc2)cnc2[nH]cc(Cl)c12 [Compound 96, (4-(3-chloro-4-(methylamino)-1H-pyrrolo[2,3-b]pyridin-5-yl)phenyl)(4-morpholinopiperidin-1-yl)methanone] | 100 | 0.05 | 0.85 | 62 | 100 | 100 | 91
